Where “and” joins values, the source holds several entries; their conditions need not be identical. Equal entries are not always repeated. Where two headings read alike, the source gives them in different places.
Assays:
PDEδ [1] = molecular target: T1, PDEδ (Homo sapiens, UniProt O43924); test: PDEδ levels by Western blot in HEK293T, HAP1 and LC3B knockout HAP1 cells; format: cell-based; design: endogenous in cells; host or cells: HEK293T; HAP1 and LC3B-knockout HAP1
Procedure: (§1) Cells were washed with PBS and lysed in lysis buffer (50 mM Tris-HCl, pH 7.4, 150 mM NaCl, 1% Triton X-100, 1% sodium deoxycholate, 0.1% SDS) with complete protease inhibitor cocktail (Roche, 11836170001) for 30 min on ice. For Ramos cells, cell pellets were lysed in lysis buffer (50 mM Tris-HCl, pH 8, 150 mM NaCl, 1% NP-40, 0.5% sodium deoxycholate) with complete protease inhibitor cocktail. After centrifugation at 16,000 x g, the supernatant was transferred into a new tube and the protein concentration was determined by DC protein assay (BIO-RAD, 5000116). Proteins were separated by SDS-PAGE and transferred to a PVDF membrane (Thermo scientific, 0.45 μm, 88518). For PDEδ, BRD2, GAPDH, BRD4, Vinculin and BTK, the membranes were blocked with Intercept® Blocking Buffer (LI-COR Biosciences, 927-70001) at room temperature for 1 h. The primary antibodies for these proteins were diluted with Intercept® Blocking Buffer (1:500 for PDEδ, 1:3000 for Vinculin, and 1:1000 for other proteins) and incubated with the membranes overnight at 4 °C. Membranes were washed with PBS + 0.1% Tween 20 (PBS-T) five times and incubated with secondary antibodies conjugated to IRDye® Infrared Fluorescent Dyes (1:5000, LI-COR Biosciences) at room temperature for 1 h with protection from light. […] Relative band intensities were quantified using Image Lab (BIO-RAD).

PDEδ [2] = molecular target: T1, PDEδ; test: PDEδ levels by Western blot in Jurkat cells; format: cell-based; design: endogenous in cells; host or cells: Jurkat; conditions: for remaining activity at 10 µM: Jurkat, 6 h, DMSO pretreatment 2 h, then 10 μM, 6h, read-out: PDEδ/Vinculin intensity (relative to DMSO control group)
LC3B = LC3B (Homo sapiens, UniProt Q9GZQ8); test: Thermal shift assay with LC3B; format: binding; conditions: 15 µM LC3B; 60 µM compound; Glo-Melt dye
Procedure: For thermal shift analysis, 15 µM of human LC3B was dispensed into 384-well plates (Hard-Shell 384-well 480 PCR plates, BioRAD #HSR4805) in buffer (50 mM Tris/HCl pH 7.4, 100 mM NaCl, 1 mM GSH and 0.02% CHAPS) with a Certus Flex liquid dispenser (Gyger). 60 µM compounds in DMSO (n4 or DMSO (0.6%) as control were added with an Echo 520 acoustic liquid handler (Labcyte). Glo-Melt dye was added (final concentration: 1/100), plates sealed with Lightcycler 480 Sealing Foils (Roche, #04 729 757 001) and mixed by short centrifugation (1 min, 60 g and room temeprature). A Lightcycler 480 II (Roche) was used for thermal shift curves with a temperature gradient from 20 to 95 °C according to the manufacturer´s protocol. Protein melting curves were analyzed, and the difference in meting temperature (ΔTm) was calculated with LightCycler Thermal Shift Analysis software (ROCHE) and visualized by Graphpad Prism (Version 9.5.1).

PDEδ [3] = molecular target: T1, PDEδ; test: PDEδ levels by Western blot in Dox-inducible DDB1 knockout KBM7 cells; format: cell-based; design: endogenous in cells; host or cells: Dox-inducible DDB1-knockout KBM7; conditions: 5 (10 μM) 8 h, Supplementary Fig. 4f
Procedure: as §1

PDE6D mRNA = test: RT-qPCR of PDE6D mRNA in Jurkat cells; format: cell-based; conditions: for PDE6D mRNA level (relative to DMSO control group): 6 h, Supplementary Fig. 1f
Procedure: Jurkat cells were grown in 12-well plates and treated with compounds for the indicated time. RNA was extracted using the RNeasy Plus Mini Kit (QIAGEN, 74134), and DNA was removed by DNase digestion with RNase-free DNase Set (QIAGEN, 79256). cDNA was synthesized using the QuantiTect Reverse Transcription Kit (QIAGEN, 205313). The mRNA expression level was evaluated with the QuantiFast SYBR Green PCR Kit (Qiagen, 330502), using the CFX96 Real-Time PCR Detection System (BIO-RAD Laboratories), and relative expression levels were calculated using the ΔΔCt method using GAPDH as reference[45] and analyzed in GraphPad Prism 9.0. The sequences of the primers for PDE6D were 5’-[…]-3’ (forward) and 5’-[…]-3’ (reverse). For GAPDH, the sequences were 5’-[…]-3’ (forward) and 5’-[…]-3’ (reverse). For BRD2, the sequences were 5’-[…]-3’ (forward), 5’-[…]-3’ (reverse). For BRD3, the sequences were 5’-[…]-3’ (forward), 5’-[…]-3’ (reverse). For BRD4, the sequences were 5’-[…]-3’ (forward), 5’-[…]-3’ (reverse). These primers were synthesized by Sigma-Aldrich.

T1 sequence (O43924 whole entry): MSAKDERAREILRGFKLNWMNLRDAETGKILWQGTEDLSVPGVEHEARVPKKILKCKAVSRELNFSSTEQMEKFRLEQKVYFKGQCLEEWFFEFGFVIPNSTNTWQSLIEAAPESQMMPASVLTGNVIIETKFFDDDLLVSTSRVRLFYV

Cc1ccc(-n2nc3c(=O)n(CCCC(=O)NCCc4ccc(C(=O)NCCOCCOCCOCCOc5c(Br)cc(/C=C6\C(=O)Nc7ccc(Br)cc76)cc5Br)cc4)nc(C)c3c2C)cc1 [Compound 5]
PDEδ degradation in HEK293T and HAP1 cell lines (PDEδ [1]; 5 μM or 10 μM): degraded
PDEδ degradation in LC3B knockout HAP1 cells (PDEδ [1]; LC3B knockout HAP1 cells): induced PDEδ degradation
PDEδ degradation (PDEδ [2]; 10 µM, 18 h incubation): ca. 75%
remaining activity at 10 µM (PDEδ [2]; Fig. 1g): 43.9%
remaining activity at 10 µM (PDEδ [2]; Fig. 1d): 44.2%
hook effect in PDEδ degradation (PDEδ [2]; up to 10 µM concentration): no hook effect
change of melting temperature of LC3B (ΔTm) (LC3B): did not change the thermal stability
PDEδ protein level (relative to DMSO control group) (PDEδ [3]; Dox-inducible DDB1 knockout KBM7 cells pretreated with 0.5 ug/mL Dox for 3 days): abolished
PDEδ protein level (relative to DMSO control group) (PDEδ [3]; Dox-inducible DDB1 knockout KBM7 cells, no Dox (DMSO)): 44.238 and 44.9587 and 52.5197 and 56.1328
PDE6D mRNA level (relative to DMSO control group) (PDE6D mRNA; 3 μM): 141.721 and 114.564 and 90.7441
PDE6D mRNA level (relative to DMSO control group) (PDE6D mRNA; 10 μM): 145.389 and 133.515 and 106.183
PDEδ mRNA levels (in words) (PDE6D mRNA; 6 h treatment): no reduction in mRNA levels
